Measured values taken from DBAASP.
Values after ≈ are worked out from the molar mass of the structure shown.

Columns and labels:
Assay in all cases: ≥ marks a high value that may be exact or a test limit, other limits are often not marked, values filed in µg/mL are converted to µM
[1] = test system: Escherichia coli KCTC 2571
[2] = test system: Salmonella typhimurium CCARM 8007
[3] = test system: Salmonella typhimurium KCTC 1926
[4] = test system: Acinetobacter baumannii CCARM 12005
[5] = test system: Pseudomonas aeruginosa CCARM 2163
[6] = test system: Salmonella typhimurium CCARM 8009
[7] = test system: Acinetobacter baumannii CCARM 12036
[8] = test system: Staphylococcus aureus KCTC 3881
[9] = test system: Pseudomonas aeruginosa CCARM 2002
[10] = test system: Escherichia coli KCTC 2593
[11] = test system: Staphylococcus aureus KCTC 1916
[12] = test system: Escherichia coli CCARM 1229
[13] = test system: Pseudomonas aeruginosa KCTC 1637
[14] = test system: Staphylococcus aureus CCARM 3089
[15] = test system: Bacillus subtilis KCTC 3068
[16] = test system: Staphylococcus aureus CCARM 3090
[17] = test system: Bacillus subtilis KCTC 1022
[18] = test system: Staphylococcus epidermidis KCTC 1917
[19] = test system: Pseudomonas aeruginosa CCARM 2003
[20] = test system: Pseudomonas aeruginosa KCTC 2513
[21] = test system: Escherichia coli KCTC 1682
[22] = test system: Pseudomonas aeruginosa CCARM 2095
[23] = test system: Pseudomonas aeruginosa KCTC 2004
[24] = test system: Bacillus subtilis KCTC 1021
[25] = test system: Escherichia coli CCARM 1238
[26] = test system: Acinetobacter baumannii CCARM 12037
[27] = test system: Salmonella typhimurium CCARM 8003
[28] = test system: Staphylococcus aureus CCARM 3114
[29] = test system: Staphylococcus aureus CCARM 3108
[30] = test system: Acinetobacter baumannii CCARM 12035
[31] = test system: Staphylococcus aureus CCARM 3126
[32] = test system: Staphylococcus aureus KCTC 1621
[33] = test system: Escherichia coli ATCC 25922
[34] = test system: Xanthomonas axonopodis pv. glycines ISBF 327
[35] = test system: Pseudomonas aeruginosa ATCC 27853
[36] = test system: Candida albicans ATCC 200955
[37] = test system: Enterococcus faecium ATCC 700221
[38] = test system: Staphylococcus aureus ATCC 33591
[39] = test system: Staphylococcus epidermidis ATCC 12228
[40] = test system: Staphylococcus aureus ATCC 25923
[41] = test system: Salmonella enterica subsp. enterica serovar Typhi DMST 22842

| SMILES | MIC [1] [µM] | MIC [2] [µM] | MIC [3] [µM] | MIC [4] [µM] | MIC [5] [µM] | MIC [6] [µM] | MIC [7] [µM] | MIC [8] [µM] | MIC [9] [µM] | MIC [10] [µM] | MIC [11] [µM] | MIC [12] [µM] | MIC [13] [µM] | MIC [14] [µM] | MIC [15] [µM] | MIC [16] [µM] | MIC [17] [µM] | MIC [18] [µM] | MIC [33] [µM] | MIC [35] [µM] | further results |
| --- | --- | --- | --- | --- | --- | --- | --- | --- | --- | --- | --- | --- | --- | --- | --- | --- | --- | --- | --- | --- | --- |
| CC[C@H](C)[C@H](NC(=O)CNC(=O)[C@H](CCCN=C(N)N)NC(=O)[C@H](Cc1ccccc1)NC(=O)[C@@H](NC(=O)[C@H](Cc1cnc[nH]1)NC(=O)[C@H](Cc1cnc[nH]1)NC(=O)[C@H](CCCCN)NC(=O)[C@@H](N)Cc1ccccc1)[C@@H](C)CC)C(=O)N[C@@H](CCCCN)C(=O)N[C@@H](Cc1cnc[nH]1)C(=O)N[C@H](C(=O)NCC(=O)N[C@@H](CCCCN)C(=O)N[C@H](C(=O)N[C@H](C(=O)N[C@@H](Cc1cnc[nH]1)C(=O)N[C@@H](CCCN=C(N)N)C(=O)N[C@@H](CC(C)C)C(=O)N[C@H](C(=O)N[C@H](C(=O)NCC(=O)O)[C@@H](C)O)C(C)C)[C@@H](C)CC)[C@@H](C)O)C(C)C [FKHHIFRGIKHVGKTIHRLVTG] | 4 (≈ 10.3 µg/mL) | 8 (≈ 20.7 µg/mL) | 2 (≈ 5.16 µg/mL) | 2 (≈ 5.16 µg/mL) | 2 (≈ 5.16 µg/mL) | 8 (≈ 20.7 µg/mL) | 2 (≈ 5.16 µg/mL) | 4 (≈ 10.3 µg/mL) | 2 (≈ 5.16 µg/mL) | 4 (≈ 10.3 µg/mL) | 4 (≈ 10.3 µg/mL) | 8 (≈ 20.7 µg/mL) | 1 (≈ 2.58 µg/mL) | 8 (≈ 20.7 µg/mL) | 2 (≈ 5.16 µg/mL) | 8 (≈ 20.7 µg/mL) | 4 (≈ 10.3 µg/mL) | 4 (≈ 10.3 µg/mL) | – | – | MIC [19]: 2 µM (≈ 5.16 µg/mL); MIC [20]: 8 µM (≈ 20.7 µg/mL); MIC [21]: 1 µM (≈ 2.58 µg/mL); MIC [22]: 2 µM (≈ 5.16 µg/mL); MIC [23]: 8 µM (≈ 20.7 µg/mL); MIC [24]: 8 µM (≈ 20.7 µg/mL); MIC [25]: 8 µM (≈ 20.7 µg/mL); MIC [26]: 2 µM (≈ 5.16 µg/mL); MIC [27]: 16 µM (≈ 41.3 µg/mL); MIC [28]: 8 µM (≈ 20.7 µg/mL); MIC [29]: 8 µM (≈ 20.7 µg/mL); MIC [30]: 2 µM (≈ 5.16 µg/mL); MIC [31]: 8 µM (≈ 20.7 µg/mL); MIC [32]: 2 µM (≈ 5.16 µg/mL) |
| CSCC[C@H](NC(=O)[C@H](Cc1ccccc1)NC(=O)CNC(=O)[C@H](Cc1ccccc1)NC(=O)[C@H](C)NC(=O)[C@H](CCCN=C(N)N)NC(=O)[C@H](CC(N)=O)NC(=O)[C@H](Cc1ccccc1)NC(=O)[C@H](CC(=O)O)NC(=O)[C@H](CCCCN)NC(=O)[C@H](Cc1ccccc1)NC(=O)[C@H](Cc1cnc[nH]1)NC(=O)[C@H](Cc1ccccc1)NC(=O)[C@H](CCC(N)=O)NC(=O)[C@H](CCCCN)NC(=O)[C@@H](N)Cc1ccccc1)C(=O)N[C@H](C(=O)N[C@@H](CCCN=C(N)N)C(=O)N[C@H](C(=O)N[C@@H](C)C(=O)N[C@@H](CC(C)C)C(=O)N[C@@H](CCC(N)=O)C(=O)N[C@@H](C)C(=O)N[C@@H](CCC(=O)O)C(=O)N[C@@H](CCCCN)C(=O)N[C@@H](CC(C)C)C(N)=O)C(C)C)[C@@H](C)O [FKQFHFKDFNRAFGFMTRVALQAEKL] | – | – | – | – | – | – | – | – | – | – | – | – | – | – | – | – | – | – | 40 (≈ 127 µg/mL) | 80 (≈ 254 µg/mL) | MIC [34]: ≥ 40 µM |
| CC[C@H](C)[C@H](NC(=O)CNC(=O)[C@H](CCCN=C(N)N)NC(=O)[C@H](Cc1ccccc1)NC(=O)[C@@H](NC(=O)[C@H](Cc1cnc[nH]1)NC(=O)[C@H](Cc1cnc[nH]1)NC(=O)[C@H](C)NC(=O)[C@@H](N)Cc1ccccc1)[C@@H](C)CC)C(=O)N[C@H](C(=O)N[C@@H](Cc1cnc[nH]1)C(=O)N[C@H](C(=O)NCC(=O)N[C@@H](CCCCN)C(=O)N[C@H](C(=O)N[C@H](C(=O)N[C@@H](Cc1cnc[nH]1)C(=O)N[C@@H](CCCN=C(N)N)C(=O)N[C@@H](CC(C)C)C(=O)N[C@H](C(=O)N[C@H](C(=O)NCC(=O)O)[C@@H](C)O)C(C)C)[C@@H](C)CC)[C@@H](C)O)C(C)C)C(C)C [FAHHIFRGIVHVGKTIHRLVTG] | 2 (≈ 4.99 µg/mL) | 16 (≈ 39.9 µg/mL) | 16 (≈ 39.9 µg/mL) | 4 (≈ 9.98 µg/mL) | 4 (≈ 9.98 µg/mL) | 16 (≈ 39.9 µg/mL) | 4 (≈ 9.98 µg/mL) | 2 (≈ 4.99 µg/mL) | 4 (≈ 9.98 µg/mL) | 2 (≈ 4.99 µg/mL) | 1 (≈ 2.5 µg/mL) | 16 (≈ 39.9 µg/mL) | 4 (≈ 9.98 µg/mL) | 16 (≈ 39.9 µg/mL) | 4 (≈ 9.98 µg/mL) | 16 (≈ 39.9 µg/mL) | 1 (≈ 2.5 µg/mL) | 2 (≈ 4.99 µg/mL) | – | – | MIC [19]: 4 µM (≈ 9.98 µg/mL); MIC [20]: 8 µM (≈ 20 µg/mL); MIC [21]: 2 µM (≈ 4.99 µg/mL); MIC [22]: 4 µM (≈ 9.98 µg/mL); MIC [23]: 8 µM (≈ 20 µg/mL); MIC [24]: 8 µM (≈ 20 µg/mL); MIC [25]: 16 µM (≈ 39.9 µg/mL); MIC [26]: 4 µM (≈ 9.98 µg/mL); MIC [27]: ≥ 32 µM; MIC [28]: 16 µM (≈ 39.9 µg/mL); MIC [29]: 16 µM (≈ 39.9 µg/mL); MIC [30]: 4 µM (≈ 9.98 µg/mL); MIC [31]: 16 µM (≈ 39.9 µg/mL); MIC [32]: 4 µM (≈ 9.98 µg/mL) |

Further lines, with some results ahead:

| MIC [1] [µM] | MIC [2] [µM] | MIC [3] [µM] | MIC [4] [µM] | MIC [5] [µM] | MIC [6] [µM] | MIC [7] [µM] | MIC [8] [µM] | MIC [9] [µM] | MIC [10] [µM] | MIC [11] [µM] | MIC [12] [µM] | MIC [13] [µM] | MIC [14] [µM] | MIC [15] [µM] | MIC [16] [µM] | MIC [17] [µM] | MIC [18] [µM] | MIC [33] [µM] | MIC [35] [µM] | SMILES | further results |
| --- | --- | --- | --- | --- | --- | --- | --- | --- | --- | --- | --- | --- | --- | --- | --- | --- | --- | --- | --- | --- | --- |
| – | – | – | – | – | – | – | – | – | – | – | – | – | – | – | – | – | – | 12.5 (≈ 15.1 µg/mL) | 28.4 (≈ 34.4 µg/mL) | CC[C@H](C)[C@H](NC(=O)[C@H](CCCCN)NC(=O)[C@H](CCCCN)NC(=O)[C@H](CC(C)C)NC(=O)[C@H](CC(C)C)NC(=O)CN)C(=O)N[C@@H](CCCCN)C(=O)N[C@@H](Cc1c[nH]c2ccccc12)C(=O)N[C@@H](CC(C)C)C(=O)N[C@@H](CC(C)C)C(N)=O [GLLKKIKWLL] | MIC [36]: ≥ 47.4 µM; MIC [37]: 22.1 µM (≈ 26.8 µg/mL); MIC [38]: 28.4 µM (≈ 34.4 µg/mL) |
| – | – | – | – | – | – | – | – | – | – | – | – | – | – | – | – | – | – | > 31.2 | > 31.2 | CC(C)[C@H](NC(=O)CNC(=O)[C@@H](N)CC(N)=O)C(=O)N[C@@H](CCC(N)=O)C(=O)N1CCC[C@H]1C(=O)N[C@@H](CCCCN)C(=O)N[C@@H](Cc1ccc(O)cc1)C(=O)N[C@@H](CCCN=C(N)N)C(=O)N[C@@H](Cc1c[nH]c2ccccc12)C(=O)N[C@@H](Cc1c[nH]c2ccccc12)C(=O)N[C@@H](CCCN=C(N)N)C(=O)N[C@@H](Cc1c[nH]c2ccccc12)C(=O)N[C@@H](Cc1c[nH]c2ccccc12)C(=O)N[C@@H](CCCN=C(N)N)C(=O)N[C@@H](CCCN=C(N)N)C(=O)N[C@@H](Cc1c[nH]c2ccccc12)C(=O)N[C@@H](Cc1c[nH]c2ccccc12)C(=O)N[C@@H](Cc1c[nH]c2ccccc12)C(=O)N[C@@H](Cc1c[nH]c2ccccc12)C(N)=O [NGVQPKYRWWRWWRRWWWW] | MIC [39]: 31.2 µM (≈ 91 µg/mL); MIC [40]: > 31.2 µM; MIC [41]: 31.2 µM (≈ 91 µg/mL) |
| – | – | – | – | – | – | – | – | – | – | – | – | – | – | – | – | – | – | 22.1 (≈ 27.2 µg/mL) | 256 (≈ 315 µg/mL) | CC[C@H](C)[C@H](NC(=O)[C@H](Cc1ccccc1)NC(=O)[C@H](CCCCN)NC(=O)[C@H](CC(C)C)NC(=O)[C@H](CC(C)C)NC(=O)CN)C(=O)N[C@@H](CCCCN)C(=O)N[C@@H](Cc1c[nH]c2ccccc12)C(=O)N[C@@H](CC(C)C)C(=O)N[C@@H](CC(C)C)C(N)=O [GLLKFIKWLL] | MIC [36]: ≥ 47.4 µM; MIC [37]: 0.8 µM (≈ 0.984 µg/mL); MIC [38]: 7.4 µM (≈ 9.1 µg/mL) |
